Source: ChEMBL document CHEMBL4831492, “Design and synthesis of 2-(2-isonicotinoylhydrazineylidene)propanamides as InhA inhibitors with high antitubercular activity” (Eur J Med Chem, 2021)
In brackets after ≈: the same amount, converted by molar mass. Activity calls are given as the source filed them. The calls are words filed in the database; no cut-off is given here.

Assays:
[1] = test system: Mycobacterium tuberculosis; test: Antimycobacterial activity against drug susceptible Mycobacterium tuberculosis H37Rv assessed as minimal inhibitory concentration required for complete inhibition of mycobacterial growth incubated for 14 days; format: functional; conditions: 336 h, time 14 day
[2] = test system: Mycobacterium tuberculosis; test: Antimycobacterial activity against drug susceptible Mycobacterium tuberculosis H37Rv assessed as minimal inhibitory concentration required for complete inhibition of mycobacterial growth incubated for 21 days; format: functional; conditions: 504 h, time 21 day
[3] = test system: Mycobacterium avium; test: Antimycobacterial activity against drug resistant Mycobacterium avium 330/88 assessed as minimal inhibitory concentration required for complete inhibition of mycobacterial growth incubated for 14 days; format: functional; conditions: 330/88, 336 h, time 14 day
[4] = test system: Mycobacterium avium; test: Antimycobacterial activity against drug resistant Mycobacterium avium 330/88 assessed as minimal inhibitory concentration required for complete inhibition of mycobacterial growth incubated for 21 days; format: functional; conditions: 330/88, 504 h, time 21 day
[5] = test system: Mycobacterium kansasii; test: Antimycobacterial activity against drug resistant Mycobacterium kansasii 6509/96 assessed as minimal inhibitory concentration required for complete inhibition of mycobacterial growth incubated for 7 days; format: functional; conditions: 6509/96, 168 h, time 7 day
[6] = test system: Mycobacterium kansasii; test: Antimycobacterial activity against drug resistant Mycobacterium kansasii 6509/96 assessed as minimal inhibitory concentration required for complete inhibition of mycobacterial growth incubated for 14 days; format: functional; conditions: 6509/96, 336 h, time 14 day
[7] = test system: Mycobacterium kansasii; test: Antimycobacterial activity against drug resistant Mycobacterium kansasii 6509/96 assessed as minimal inhibitory concentration required for complete inhibition of mycobacterial growth incubated for 21 days; format: functional; conditions: 6509/96, 504 h, time 21 day
[8] = test system: Mycobacterium kansasii; test: Antimycobacterial activity against drug resistant Mycobacterium kansasii 235/80 assessed as minimal inhibitory concentration required for complete inhibition of mycobacterial growth incubated for 7 days; format: functional; conditions: 235/80, 168 h, time 7 day
[9] = test system: Mycobacterium kansasii; test: Antimycobacterial activity against drug resistant Mycobacterium kansasii 235/80 assessed as minimal inhibitory concentration required for complete inhibition of mycobacterial growth incubated for 14 days; format: functional; conditions: 235/80, 336 h, time 14 day
[10] = test system: Mycobacterium kansasii; test: Antimycobacterial activity against drug resistant Mycobacterium kansasii 235/80 assessed as minimal inhibitory concentration required for complete inhibition of mycobacterial growth incubated for 21 days; format: functional; conditions: 235/80, 504 h, time 21 day
[11] = test system: Mycobacterium tuberculosis; test: Antimycobacterial activity against Mycobacterium tuberculosis H37Ra carrying pMC261/pVV16 plasmid assessed as bacterial growth inhibition incubated for 28 days by drop dilution method; format: functional; conditions: 672 h, time 28 day
[12] = test system: Mycobacterium tuberculosis; test: Inhibition of mycolic acid synthesis in Mycobacterium tuberculosis H37Ra assessed as decrease in production of trehalose monomycolates at MIC incubated for 24 hrs followed by 14C labelling and further incubated for 24 hrs by TLC based autoradiography analysis; format: functional, organism-based; conditions: time 48.0 hrs
[13] = test system: Mycobacterium tuberculosis; test: Inhibition of mycolic acid synthesis in Mycobacterium tuberculosis H37Ra assessed as decrease in production of trehalose dimycolates at MIC incubated for 24 hrs followed by 14C labelling and further incubated for 24 hrs by TLC based autoradiography analysis; format: functional, organism-based; conditions: time 48.0 hrs
[14] = test system: Mycobacterium tuberculosis; test: Inhibition of mycolic acid synthesis in Mycobacterium tuberculosis H37Ra assessed as decrease in production of mycolic acid at MIC incubated for 24 hrs followed by 14C addition and further incubated for 24 hrs by TLC based autoradiography analysis; format: functional, organism-based; conditions: time 48.0 hrs
[15] = test system: Mycobacterium tuberculosis; test: Inhibition of mycolic acid synthesis in Mycobacterium tuberculosis H37Ra assessed as decrease in production of standard fatty acid at MIC incubated for 24 hrs followed by 14C labelling and further incubated for 24 hrs by TLC based autoradiography analysis; format: functional, organism-based; conditions: time 48.0 hrs
[16] = test system: HepG2; test: Cytotoxicity against human HepG2 cells assessed as reduction in cell viability incubated overnight followed by compound washout by MTT assay; format: cell-based
[17] = test system: HepG2; test: Cytostatic activity in human HepG2 cells assessed as reduction in cell viability incubated overnight followed by compound washout and further incubated for 72 hrs in medium containing serum by MTT assay; format: functional, cell-based; conditions: HepG2, 72 h
[18] = Selectivity index, ratio of CC50 for cytotoxicity against human HepG2 cells to MIC for antimycobacterial activity against drug susceptible Mycobacterium tuberculosis H37Rv; format: toxicity, cell-based; conditions: read-out: Selectivity Index
[19] = Selectivity index, ratio of CC50 for cytotoxicity against human HepG2 cells to MIC for antimycobacterial activity against drug susceptible Mycobacterium […]; format: toxicity, cell-based; conditions: read-out: Selectivity Index
[20] = test system: Mycobacterium avium; test: Antimycobacterial activity against drug resistant Mycobacterium avium 330/88 assessed as inhibition of mycobacterial growth at 500 uM incubated for 14 days; format: functional, organism-based; conditions: time 14.0 day
[21] = test system: Mycobacterium avium; test: Antimycobacterial activity against drug resistant Mycobacterium avium 330/88 assessed as inhibition of mycobacterial growth at 500 uM incubated for 21 days; format: functional, organism-based; conditions: time 21.0 day
[22] = test system: Mycobacterium avium; test: Antimycobacterial activity against drug resistant Mycobacterium avium 330/88 assessed as inhibition of mycobacterial growth at 125 uM incubated for 14 days; format: functional, organism-based; conditions: time 14.0 day
[23] = test system: Mycobacterium avium; test: Antimycobacterial activity against drug resistant Mycobacterium avium 330/88 assessed as inhibition of mycobacterial growth at 125 uM incubated for 21 days; format: functional, organism-based; conditions: time 21.0 day
[24] = test system: Mycobacterium avium; test: Antimycobacterial activity against drug resistant Mycobacterium avium 330/88 assessed as inhibition of mycobacterial growth at 250 uM incubated for 14 days; format: functional, organism-based; conditions: time 14.0 day
[25] = test system: Mycobacterium avium; test: Antimycobacterial activity against drug resistant Mycobacterium avium 330/88 assessed as inhibition of mycobacterial growth at 250 uM incubated for 21 days; format: functional, organism-based; conditions: time 21.0 day

Compound	MIC [1]	MIC [2]	MIC [3]	MIC [4]	MIC [5]	MIC [6]	MIC [7]	MIC [8]	MIC [9]	MIC [10]	IC50 [16]	IC50 [17]	selectivity ratio [18]	selectivity ratio [19]	also measured
NNC(=O)c1ccncc1 [ISONIAZID]	0.5 µM (≈ 0.0686 µg/mL)	1 µM (≈ 0.137 µg/mL)	> 250 µM	> 250 µM	4 µM (≈ 0.549 µg/mL)	8 µM (≈ 1.1 µg/mL)	8 µM (≈ 1.1 µg/mL)	> 250 µM	> 250 µM	> 250 µM					
C/C(=N\NC(=O)c1ccncc1)C(=O)Nc1ccc(I)cc1	0.25 µM (≈ 0.102 µg/mL)	0.25 µM (≈ 0.102 µg/mL)	250 µM (≈ 102 µg/mL)	250 µM (≈ 102 µg/mL)	2 µM (≈ 0.816 µg/mL)	4 µM (≈ 1.63 µg/mL)	4 µM (≈ 1.63 µg/mL)	8 µM (≈ 3.27 µg/mL)	8 µM (≈ 3.27 µg/mL)	8 µM (≈ 3.27 µg/mL)	> 50 µM	> 50 µM	> 200	> 12.5	MIC [11]: 0.5 µM (≈ 0.204 µg/mL); inhibition [12]: Active; inhibition [13]: Active; inhibition [14]: Active; inhibition [15]: inactive
C/C(=N\NC(=O)c1ccncc1)C(=O)Nc1ccc(F)c(F)c1	0.25 µM (≈ 0.0796 µg/mL)	0.5 µM (≈ 0.159 µg/mL)			2 µM (≈ 0.637 µg/mL)	4 µM (≈ 1.27 µg/mL)	8 µM (≈ 2.55 µg/mL)								Activity [20]: inactive; Activity [21]: inactive
C/C(=N\NC(=O)c1ccncc1)C(=O)Nc1ccc(C(F)(F)F)cc1	≤ 0.03 µM	≤ 0.03 µM			2 µM (≈ 0.701 µg/mL)	4 µM (≈ 1.4 µg/mL)	4 µM (≈ 1.4 µg/mL)	8 µM (≈ 2.8 µg/mL)	16 µM (≈ 5.6 µg/mL)	32 µM (≈ 11.2 µg/mL)	> 50 µM	> 50 µM	> 1670	> 12.5	Activity [22]: inactive; Activity [23]: inactive
C/C(=N\NC(=O)c1ccncc1)C(=O)Nc1cccc(OC(F)(F)F)c1	0.125 µM (≈ 0.0458 µg/mL)	0.5 µM (≈ 0.183 µg/mL)			4 µM (≈ 1.47 µg/mL)	8 µM (≈ 2.93 µg/mL)	8 µM (≈ 2.93 µg/mL)								Activity [20]: inactive; Activity [21]: inactive
C/C(=N\NC(=O)c1ccncc1)C(=O)Nc1ccc(Br)cc1	0.06 µM (≈ 0.0217 µg/mL)	0.125 µM (≈ 0.0451 µg/mL)	250 µM (≈ 90.3 µg/mL)	250 µM (≈ 90.3 µg/mL)	4 µM (≈ 1.44 µg/mL)	8 µM (≈ 2.89 µg/mL)	16 µM (≈ 5.78 µg/mL)	16 µM (≈ 5.78 µg/mL)	16 µM (≈ 5.78 µg/mL)	16 µM (≈ 5.78 µg/mL)	> 50 µM	> 50 µM	> 400	> 3.12	
C/C(=N\NC(=O)c1ccncc1)C(=O)Nc1cccc(Br)c1	0.125 µM (≈ 0.0451 µg/mL)	0.125 µM (≈ 0.0451 µg/mL)	> 1000 µM	> 1000 µM	4 µM (≈ 1.44 µg/mL)	8 µM (≈ 2.89 µg/mL)	8 µM (≈ 2.89 µg/mL)								
C/C(=N\NC(=O)c1ccncc1)C(=O)Nc1cc(Cl)c(Cl)c(Cl)c1	0.5 µM (≈ 0.193 µg/mL)	1 µM (≈ 0.386 µg/mL)	> 250 µM	> 250 µM	16 µM (≈ 6.17 µg/mL)	16 µM (≈ 6.17 µg/mL)	32 µM (≈ 12.3 µg/mL)	62.5 µM (≈ 24.1 µg/mL)	125 µM (≈ 48.2 µg/mL)	250 µM (≈ 96.4 µg/mL)					
C/C(=N\NC(=O)c1ccncc1)C(=O)Nc1ccc(SC(F)(F)F)cc1	0.5 µM (≈ 0.191 µg/mL)	0.5 µM (≈ 0.191 µg/mL)			4 µM (≈ 1.53 µg/mL)	4 µM (≈ 1.53 µg/mL)	4 µM (≈ 1.53 µg/mL)								Activity [24]: inactive; Activity [25]: inactive
C/C(=N\NC(=O)c1ccncc1)C(=O)Nc1ccc(C(F)(F)C(F)(F)C(F)(F)C(F)(F)C(F)(F)C(F)(F)C(F)(F)C(F)(F)F)cc1	0.25 µM (≈ 0.175 µg/mL)	0.5 µM (≈ 0.35 µg/mL)	> 1000 µM	> 1000 µM	> 1000 µM	> 1000 µM	> 1000 µM								
